From ChEMBL document CHEMBL1201862, “PubChem BioAssay data set” (2004)
Activity calls are given as the source filed them.

Key:
Assay type in all cases: functional
[1] = molecular target: Small ubiquitin-related modifier 2 (Homo sapiens, UniProt P61956); assay: disruption of SUMO2 interaction with SIM peptide – biochemical, fluorescence polarization, uHTS hits, selectivity assay for SUMO1 interaction inhibitor project, dose response (AID 624385); details: read-out: IC50_Mean
[2] = molecular target: T1, RNA-editing ligase 1, mitochondrial (Trypanosoma brucei brucei, UniProt P86926); assay: inhibition of trypanosome RNA editing ligase – biochemical, fluorescence, Trypanosoma brucei, dose response (AID 1117295)
T1 sequence (P86926 whole entry): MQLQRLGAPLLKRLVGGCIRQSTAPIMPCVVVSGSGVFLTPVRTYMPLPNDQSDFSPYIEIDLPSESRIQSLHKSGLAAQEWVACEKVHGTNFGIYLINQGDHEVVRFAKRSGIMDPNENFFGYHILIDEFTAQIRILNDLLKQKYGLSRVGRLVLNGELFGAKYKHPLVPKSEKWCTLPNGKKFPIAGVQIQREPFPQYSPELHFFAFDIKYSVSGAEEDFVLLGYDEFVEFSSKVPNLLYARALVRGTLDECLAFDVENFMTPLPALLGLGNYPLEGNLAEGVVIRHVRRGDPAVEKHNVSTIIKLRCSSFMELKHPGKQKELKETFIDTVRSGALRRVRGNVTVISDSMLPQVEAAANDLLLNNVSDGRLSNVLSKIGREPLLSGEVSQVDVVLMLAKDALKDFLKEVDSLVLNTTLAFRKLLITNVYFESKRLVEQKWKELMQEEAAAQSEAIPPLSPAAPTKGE

Genome polyprotein = Genome polyprotein (dengue virus type 2, UniProt P29990); assay: flavivirus cap methylation enzyme inhibition – biochemical, confirmation dose response, primary screen (AID 588689)
[3] = molecular target: T2, Sentrin-specific protease 8 (Homo sapiens, UniProt Q96LD8);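 also: kinetic enzyme assay of SENP8 cleaving a Nedd8 protein substrate, dose-response confirmation of screening hits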
T2 sequence (Q96LD8 whole entry): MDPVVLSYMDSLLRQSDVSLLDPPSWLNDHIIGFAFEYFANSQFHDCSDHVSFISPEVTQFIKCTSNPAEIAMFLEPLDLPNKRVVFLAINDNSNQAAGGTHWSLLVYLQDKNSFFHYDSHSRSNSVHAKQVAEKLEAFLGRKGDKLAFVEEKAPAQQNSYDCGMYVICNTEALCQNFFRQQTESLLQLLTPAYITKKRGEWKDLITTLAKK

[4] = molecular target: T3, Replicative DNA helicase DnaB (Mycobacterium tuberculosis, UniProt P9WMR3); assay: DnaB intein splicing inhibitors, dose response, biochemical, cell-free fluorescence (AID 449749)
T3 sequence (P9WMR3 whole entry): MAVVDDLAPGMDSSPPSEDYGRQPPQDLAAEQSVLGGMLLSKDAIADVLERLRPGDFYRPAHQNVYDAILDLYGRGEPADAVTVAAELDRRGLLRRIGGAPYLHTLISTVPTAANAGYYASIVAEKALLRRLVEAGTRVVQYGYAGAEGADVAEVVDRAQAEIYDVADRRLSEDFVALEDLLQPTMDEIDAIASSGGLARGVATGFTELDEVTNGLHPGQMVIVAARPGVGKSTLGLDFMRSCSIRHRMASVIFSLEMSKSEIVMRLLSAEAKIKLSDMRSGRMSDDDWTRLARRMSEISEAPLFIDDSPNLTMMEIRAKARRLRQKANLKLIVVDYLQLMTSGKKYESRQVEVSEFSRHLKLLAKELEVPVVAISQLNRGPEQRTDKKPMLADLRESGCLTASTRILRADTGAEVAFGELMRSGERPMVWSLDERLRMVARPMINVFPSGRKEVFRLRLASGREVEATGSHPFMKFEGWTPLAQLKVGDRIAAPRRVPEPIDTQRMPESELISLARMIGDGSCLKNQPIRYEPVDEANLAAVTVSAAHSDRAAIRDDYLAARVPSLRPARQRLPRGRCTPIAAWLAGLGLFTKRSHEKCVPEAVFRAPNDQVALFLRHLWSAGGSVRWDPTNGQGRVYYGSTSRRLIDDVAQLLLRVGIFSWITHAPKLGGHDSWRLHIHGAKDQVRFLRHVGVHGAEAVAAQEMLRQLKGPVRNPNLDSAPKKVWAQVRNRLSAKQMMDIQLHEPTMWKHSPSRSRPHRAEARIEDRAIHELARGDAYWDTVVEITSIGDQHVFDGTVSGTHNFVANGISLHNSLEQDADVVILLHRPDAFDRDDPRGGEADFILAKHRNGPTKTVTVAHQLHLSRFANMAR

Protein RecA = molecular target: T4, Protein RecA (Mycobacterium tuberculosis, UniProt P9WHJ3); assay: Fluorescence Cell-Free Homogeneous Dose Retest to Identify Inhibitors of RecA-Intein Splicing Activity. [Related pubchem assays (depositor defined):AID2097, AID2223, AID489010, AID492950]
T4 sequence (P9WHJ3 whole entry): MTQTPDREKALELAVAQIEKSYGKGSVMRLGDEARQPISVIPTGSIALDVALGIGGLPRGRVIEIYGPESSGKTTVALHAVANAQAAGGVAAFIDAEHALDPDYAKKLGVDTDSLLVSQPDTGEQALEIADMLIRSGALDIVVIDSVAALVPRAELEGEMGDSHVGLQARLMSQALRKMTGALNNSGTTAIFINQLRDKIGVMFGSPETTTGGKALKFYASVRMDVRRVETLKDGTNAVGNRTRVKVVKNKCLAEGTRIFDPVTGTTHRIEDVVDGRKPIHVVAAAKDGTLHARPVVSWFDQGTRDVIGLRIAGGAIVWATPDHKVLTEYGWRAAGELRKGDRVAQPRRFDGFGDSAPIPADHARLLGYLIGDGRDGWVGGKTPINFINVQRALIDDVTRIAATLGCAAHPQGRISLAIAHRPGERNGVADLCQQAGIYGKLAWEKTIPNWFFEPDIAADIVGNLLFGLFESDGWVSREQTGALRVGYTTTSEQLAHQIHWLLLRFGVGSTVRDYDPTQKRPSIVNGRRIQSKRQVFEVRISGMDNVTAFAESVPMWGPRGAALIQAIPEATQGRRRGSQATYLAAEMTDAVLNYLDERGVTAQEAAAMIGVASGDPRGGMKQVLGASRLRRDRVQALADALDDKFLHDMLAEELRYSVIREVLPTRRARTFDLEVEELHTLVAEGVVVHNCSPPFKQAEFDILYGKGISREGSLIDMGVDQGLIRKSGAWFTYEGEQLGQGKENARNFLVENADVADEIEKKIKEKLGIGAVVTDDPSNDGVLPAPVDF

Small ubiquitin-related modifier 2, sequence (P61956 whole entry): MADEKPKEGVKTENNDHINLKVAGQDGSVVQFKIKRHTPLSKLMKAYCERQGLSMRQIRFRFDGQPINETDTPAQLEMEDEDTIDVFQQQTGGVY
Genome polyprotein, sequence (P29990 2492-3391 limits assumed): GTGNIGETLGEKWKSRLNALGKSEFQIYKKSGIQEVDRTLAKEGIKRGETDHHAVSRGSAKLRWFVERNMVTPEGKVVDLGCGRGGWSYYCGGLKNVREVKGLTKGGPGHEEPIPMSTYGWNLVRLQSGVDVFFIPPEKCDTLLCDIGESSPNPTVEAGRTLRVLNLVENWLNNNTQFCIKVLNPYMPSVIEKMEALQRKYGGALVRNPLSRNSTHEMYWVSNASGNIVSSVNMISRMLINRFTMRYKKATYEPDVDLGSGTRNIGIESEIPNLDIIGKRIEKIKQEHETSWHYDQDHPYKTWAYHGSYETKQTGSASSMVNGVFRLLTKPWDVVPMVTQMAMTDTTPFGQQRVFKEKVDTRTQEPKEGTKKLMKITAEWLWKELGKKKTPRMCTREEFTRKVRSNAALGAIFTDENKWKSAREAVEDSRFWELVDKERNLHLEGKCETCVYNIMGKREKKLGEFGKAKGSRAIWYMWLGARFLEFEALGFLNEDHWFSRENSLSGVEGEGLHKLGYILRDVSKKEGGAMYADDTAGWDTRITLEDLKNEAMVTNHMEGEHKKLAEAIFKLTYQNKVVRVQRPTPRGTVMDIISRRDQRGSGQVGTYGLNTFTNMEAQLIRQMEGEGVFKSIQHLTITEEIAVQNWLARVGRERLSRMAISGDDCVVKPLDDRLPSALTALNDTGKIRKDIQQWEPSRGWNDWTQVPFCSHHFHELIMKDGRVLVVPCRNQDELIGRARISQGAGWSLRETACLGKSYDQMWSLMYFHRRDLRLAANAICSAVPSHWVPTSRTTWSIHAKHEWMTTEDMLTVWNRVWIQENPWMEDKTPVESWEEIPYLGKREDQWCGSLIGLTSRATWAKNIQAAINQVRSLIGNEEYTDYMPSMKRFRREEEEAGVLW

For `Nc1ccc2nc3c(O)nc(S)nc3nc2c1`, the IC50 [1] was 55.2 µM (inactive) and the IC50 [2] was 2.76 µM (active).
With `Cc1oc2c(c1C(=O)c1ccccc1)C(=O)C(=O)c1ccccc1-2` the IC50 [2] was 10.3 µM (inactive) and the IC50 (Genome polyprotein) was 48.4 µM (active).
With `O=C1CCCC2=C1C1(O)C(=O)c3ccccc3C1(O)O2` (configuration not stated) the IC50 [3] was 6.65 µM (active), the AC50 [4] was 5.49 µM (active) and the EC50 (Protein RecA) was 11.5 µM (active).
With `CSc1ccc(C=NNc2ccc(S(=O)(=O)Nc3ccccc3C(=O)O)cc2[N+](=O)[O-])cc1` the IC50 [1] was 2.38 µM (active).
For `O=C1C(Cl)=C(NCCN2CCCCC2)C(=O)c2ccccc21`, the AC50 [4] was 14 µM (active) and the EC50 (Protein RecA) was 7.31 µM (active).
With `COc1cc(NCCCNC(C)C)c2nccc(C)c2c1` the IC50 [3] was 1.09 µM (active).
For `CC(/C=C1\SC(=S)N(NS(=O)(=O)c2ccccc2)C1=O)=C\c1ccccc1`, the IC50 (Genome polyprotein) was 29.3 µM (active).
